IC50 data for 21 compounds are collected here from patent publication US20250313577A1, “TRICYCLIC PYRIDONES AND PYRIMIDONES” (ERASCA, INC, priority 2022, published 2025).

For this test, the target named is T1, KRAS G12C (Homo sapiens, UniProt P01116, G12C).
T1 construct: expressed in transfected cells; host or cells: Ras Initiative (RI) KRAS G12C cells
The test is described as follows: phospho-ERK HTRF assay in Ras Initiative (RI) KRAS G12C cells. Type of test: cell-based. As to conditions: phospho-ERK1/2 HTRF, 11-point dose response from 2,500 nM, treatment for either 4 hours or 16 hours, read-out: pERK (RI). Here is the method: Inhibition of KRAS G12C-Mediates Phospho-ERK1/2 Inhibition by Compounds of Formula I
This Example illustrates that various compounds of the present disclosure inhibit KRAS G12C thereby mediating the downstream inhibition of phospho-ERK1/2.
KRAS G12C mutant cell lines, NCI H358 (ATCC, CRL-5807), and Ras Initiative (R1) KRAS G12C were cultured according to published protocols and maintained at 37° C. in 5% CO2. The phospho-ERK HTRF assay was executed following provider's protocol (CisBio #64AERPEH). NCI-H358 or RI KRAS G12C cells were plated at a density of 50,000 cells per well in a 96-well plate (Corning #3903) in respective medias (for NCI-H358, RPMI+10% FBS+1% Pen/Strep, and for RI KRAS G12C, DMEM+10% FBS+1% Pen/Strep+4 ug/ml Blasticidin) and maintained at 37° C. in 5% CO2. Cells were allowed to adhere overnight and treated the following day with a Tecan D300e Digital Dispenser (Tecan Group Ltd., Switzerland) using an 11-point dose response starting at 2,500 nM of exemplified compounds followed by sequential 1:3 dilutions for either 4 hours or 16 hours. Following compound treatment, the cells were washed once with ice-cold PBS. Cells were lysed by adding 50 μl of lysis buffer (1×) supplemented with 1× Pierce Halt Protease and Phosphatase inhibitor and incubated for 30 minutes at 4° C. with shaking. After lysis, 16 μL of cell lysate from the 96-well cell-culture plate was transferred to a 384-well plate (Perkin Elmer #6007290). The premixed antibody solution was prepared by mixing (vol/vol) advanced phospho-ERK1/2 d2 antibody and advanced phospho-ERK1/2 Eu Cryptate antibody. The premixed antibody solution ([…]) was added to the detection plate containing cell lysate. The detection plate was incubated overnight at 4° C., the HTRF signal was read the next day by using either a Spectramax M5 or Spectramax i3 microplate reader (Molecular Devices, San Jose, CA, USA), and data was processed according to manufacturer's protocol.
Compounds prepared according to the preceding procedures and characterized for inhibition of p-ERK according to the protocol provided herein are summarized in Table 3: […]
Background: TR-FRET usually uses a lanthanide donor and a delayed reading to cut background.
In the case of `C=CC(=O)N1[C@H](C)CN(c2nc(=O)n3c4c(c(-c5ccc(F)cc5)c(C(F)(F)F)cc24)SCC(c2ccc(F)cc2)C3)C[C@@H]1C` (stereo partly drawn) [Example 116], the IC50 was in the range of 2 to 20 nM.

On to `C=CC(=O)N1[C@H](C)CN(c2nc(=O)n3c4c(c(-c5cc(Cl)c(F)cc5F)c(C(F)(F)F)cc24)SC[C@H](c2ccncc2F)C3)C[C@@H]1C` [Example 111], for which the IC50 was 20 to 250 nM.

Consider `C=CC(=O)N1[C@H](C)CN(c2nc(=O)n3c4c(c(-c5cc(Br)c(F)cc5F)c(C(F)(F)F)cc24)SC[C@@H](c2cccnc2)C3)C[C@@H]1C` (atropisomer, axis not shown) [Example 108A, (3S,11R)-8-((3S,5R)-4-acryloyl-3,5-dimethylpiperazin-1-yl)-11-(5-bromo-2,4-difluorophenyl)-3-(pyridin-3-yl)-10-(trifluoromethyl)-3,4-dihydro-2H,6H-[1,4]thiazepino[2,3,4-ij]quinazolin-6-one], for which the IC50 was in the range of 0.5 to 2 nM.

Take `C=CC(=O)N1[C@H](C)CN(c2nc(=O)n3c4c(c(-c5ccc(F)cc5)c(C(F)(F)F)cc24)SC[C@@H](c2cccs2)C3)C[C@@H]1C` [Example 125, (S)-8-((3S,5R)-4-acryloyl-3,5-dimethylpiperazin-1-yl)-11-(4-fluorophenyl)-3-(thiophen-2-yl)-10-(trifluoromethyl)-3,4-dihydro-2H,6H-[1,4]thiazepino[2,3,4-ij]quinazolin-6-one]: the IC50 was 2 to 20 nM.

Turning to `C=CC(=O)N1[C@H](C)CN(c2nc(=O)n3c4c(c(-c5cc(Cl)c(F)cc5F)c(C(F)(F)F)cc24)SC[C@@H](c2cccnc2)C3)C[C@@H]1C` [Example 104B, (3S,11S)-8-((3S,5R)-4-acryloyl-3,5-dimethylpiperazin-1-yl)-11-(5-chloro-2,4-difluorophenyl)-3-(pyridin-3-yl)-10-(trifluoromethyl)-3,4-dihydro-2H,6H-[1,4]thiazepino[2,3,4-ij]quinazolin-6-one], the IC50 fell in the range of 2 to 20 nM.

Consider `C=CC(=O)N1[C@H](C)CN(c2nc(=O)n3c4c(c(-c5ccc(F)cc5F)c(C(F)(F)F)cc24)SC[C@H](c2ccc(F)cc2)C3)C[C@@H]1C` (atropisomer, axis not shown) [Example 118], for which the IC50 was greater than 250 nM.

Take `C=CC(=O)N1[C@H](C)CN(c2nc(=O)n3c4c(c(-c5cc(Br)c(F)cc5F)c(C(F)(F)F)cc24)SC[C@@H](c2ccccn2)C3)C[C@@H]1C` (single isomer, unassigned) [Example 107B]: the IC50 fell in the range of 0.5 to 2 nM.

For “(3R,11S)-8-((3S,5R)-4-acryloyl-3,5-dimethylpiperazin-1-yl)-11-(5-chloro-2,4-difluorophenyl)-3-((S)-3,4-dihydropyridin-4-yl)-10-(trifluoromethyl)-3,4-dihydro-2H,6H-[1,4]thiazepino[2,3,4-ij]quinazolin-6-one [Example 101B]”, the IC50 fell in the range of 20 to 250 nM.

On to `C=CC(=O)N1[C@H](C)CN(c2nc(=O)n3c4c(c(-c5cc(Cl)c(F)cc5F)c(C(F)(F)F)cc24)SC[C@@H](c2cncc(F)c2)C3)C[C@@H]1C` [Example 109, (3S)-8-((3S,5R)-4-acryloyl-3,5-dimethylpiperazin-1-yl)-11-(5-chloro-2,4-difluorophenyl)-3-(5-fluoropyridin-3-yl)-10-(trifluoromethyl)-3,4-dihydro-2H,6H-[1,4]thiazepino[2,3,4-ij]quinazolin-6-one], for which the IC50 fell in the range of 2 to 20 nM.

For `C=CC(=O)N1[C@H](C)CN(c2nc(=O)n3c4c(c(-c5ccc(F)cc5)c(C(F)(F)F)cc24)SCC(c2ccc(F)cc2)C3)C[C@@H]1C` (stereo partly drawn) [Example 115, 8-((3S,5R)-4-acryloyl-3,5-dimethylpiperazin-1-yl)-3,11-bis(4-fluorophenyl)-10-(trifluoromethyl)-3,4-dihydro-2H,6H-[1,4]thiazepino[2,3,4-ij]quinazolin-6-one], the IC50 lay within 20 to 250 nM.

Take `C=CC(=O)N1[C@H](C)CN(c2nc(=O)n3c4c(c(-c5cc(Cl)c(F)cc5F)c(C(F)(F)F)cc24)SC[C@@H](c2ccncc2F)C3)C[C@@H]1C` (single isomer, unassigned) [Example 112A]: the IC50 was in the range of 2 to 20 nM.

As to `C=CC(=O)N1[C@H](C)CN(c2nc(=O)n3c4c(c(-c5ccc(F)cc5)c(C(F)(F)F)cc24)SC[C@@H](c2cncc(F)c2)C3)C[C@@H]1C` [Example 126, (S)-8-((3S,5R)-4-acryloyl-3,5-dimethylpiperazin-1-yl)-11-(4-fluorophenyl)-3-(5-fluoropyridin-3-yl)-10-(trifluoromethyl)-3,4-dihydro-2H,6H-[1,4]thiazepino[2,3,4-ij]quinazolin-6-one], the IC50 lay within 0.5 to 2 nM.

In the case of `C=CC(=O)N1[C@H](C)CN(c2nc(=O)n3c4c(c(-c5cc(Br)c(F)cc5F)c(C(F)(F)F)cc24)SC[C@@H](c2ccccn2)C3)C[C@@H]1C` (single isomer, unassigned) [Example 107A], the IC50 lay within 2 to 20 nM.

As for `C=CC(=O)N1[C@H](C)CN(c2nc(=O)n3c4c(c(-c5cc(Br)c(F)cc5F)c(C(F)(F)F)cc24)SC[C@@H](c2ccncc2)C3)C[C@@H]1C` [Example 102, (3S)-8-((3S,5R)-4-acryloyl-3,5-dimethylpiperazin-1-yl)-11-(5-bromo-2,4-difluorophenyl)-3-(pyridin-4-yl)-10-(trifluoromethyl)-3,4-dihydro-2H,6H-[1,4]thiazepino[2,3,4-ij]quinazolin-6-one], the IC50 lay within 0.5 to 2 nM.

As for `C=CC(=O)N1[C@H](C)CN(c2nc(=O)n3c4c(c(-c5cc(Cl)c(F)cc5F)c(C(F)(F)F)cc24)SC[C@@H](c2ccncc2F)C3)C[C@@H]1C` (single isomer, unassigned) [Example 112B], the IC50 is 0.5 to 2 nM.

`C=CC(=O)N1[C@H](C)CN(c2nc(=O)n3c4c(c(-c5ccc(F)cc5)c(C(F)(F)F)cc24)SC[C@H](c2cccs2)C3)C[C@@H]1C` [Example 124, (R)-8-((3S,5R)-4-acryloyl-3,5-dimethylpiperazin-1-yl)-11-(4-fluorophenyl)-3-(thiophen-2-yl)-10-(trifluoromethyl)-3,4-dihydro-2H,6H-[1,4]thiazepino[2,3,4-ij]quinazolin-6-one]: the IC50 was in the range of 20 to 250 nM.

With `C=CC(=O)N1[C@H](C)CN(c2nc(=O)n3c4c(c(-c5ccc(F)cc5)c(C(F)(F)F)cc24)SC[C@@H](c2ccccn2)C3)C[C@@H]1C` [Example 106, (R)-8-((3S,5R)-4-acryloyl-3,5-dimethylpiperazin-1-yl)-11-(4-fluorophenyl)-3-(pyridin-2-yl)-10-(trifluoromethyl)-3,4-dihydro-2H,6H-[1,4]thiazepino[2,3,4-ij]quinazolin-6-one], the IC50 was in the range of 0.5 to 2 nM.

`C=CC(=O)N1[C@H](C)CN(c2nc(=O)n3c4c(c(-c5cc(Br)c(F)cc5F)c(C(F)(F)F)cc24)SC[C@H](c2ccccn2)C3)C[C@@H]1C` [Example 103]: the IC50 was greater than 250 nM.

`C=CC(=O)N1[C@H](C)CN(c2nc(=O)n3c4c(c(-c5cc(Br)c(F)cc5F)c(C(F)(F)F)cc24)SC[C@@H](c2cccnc2)C3)C[C@@H]1C` [Example 108B, (3S,11S)-8-((3S,5R)-4-acryloyl-3,5-dimethylpiperazin-1-yl)-11-(5-bromo-2,4-difluorophenyl)-3-(pyridin-3-yl)-10-(trifluoromethyl)-3,4-dihydro-2H,6H-[1,4]thiazepino[2,3,4-ij]quinazolin-6-one]: the IC50 fell in the range of 2 to 20 nM.

As for `C=CC(=O)N1[C@H](C)CN(c2nc(=O)n3c4c(c(-c5cc(Cl)c(F)cc5F)c(C(F)(F)F)cc24)SC[C@@H](c2cccnc2)C3)C[C@@H]1C` (atropisomer, axis not shown) [Example 104A, (3S,11R)-8-((3S,5R)-4-acryloyl-3,5-dimethylpiperazin-1-yl)-11-(5-chloro-2,4-difluorophenyl)-3-(pyridin-3-yl)-10-(trifluoromethyl)-3,4-dihydro-2H,6H-[1,4]thiazepino[2,3,4-ij]quinazolin-6-one], the IC50 is 0.5 to 2 nM.

For the compound `C=CC(=O)N1[C@H](C)CN(c2nc(=O)n3c4c(c(-c5cc(Cl)c(F)cc5F)c(C(F)(F)F)cc24)SC[C@@H](c2ccncc2)C3)C[C@@H]1C` (atropisomer, axis not shown) [Example 100B, (3S)-8-((3S,5R)-4-acryloyl-3,5-dimethylpiperazin-1-yl)-11-(5-chloro-2,4-difluorophenyl)-3-(pyridin-4-yl)-10-(trifluoromethyl)-3,4-dihydro-2H,6H-[1,4]thiazepino[2,3,4-ij]quinazolin-6-one], the IC50 was 0.5 to 2 nM.
